Test results taken from US20220235006A1, “PYRIDINE DERIVATIVES AS TMEM16A MODULATORS FOR USE IN THE TREATMENT OF RESPIRATORY CONDITIONS” (TMEM16A LIMITED, priority 2019, published 2022).

Target: T1, human TMEM16A (TMEM16Aabc variant) (Homo sapiens, UniProt Q5XXA6, DEL476-501)
T1 sequence (Q5XXA6 with tags, fused parts or gaps isoform Q5XXA6-5 DEL539-564): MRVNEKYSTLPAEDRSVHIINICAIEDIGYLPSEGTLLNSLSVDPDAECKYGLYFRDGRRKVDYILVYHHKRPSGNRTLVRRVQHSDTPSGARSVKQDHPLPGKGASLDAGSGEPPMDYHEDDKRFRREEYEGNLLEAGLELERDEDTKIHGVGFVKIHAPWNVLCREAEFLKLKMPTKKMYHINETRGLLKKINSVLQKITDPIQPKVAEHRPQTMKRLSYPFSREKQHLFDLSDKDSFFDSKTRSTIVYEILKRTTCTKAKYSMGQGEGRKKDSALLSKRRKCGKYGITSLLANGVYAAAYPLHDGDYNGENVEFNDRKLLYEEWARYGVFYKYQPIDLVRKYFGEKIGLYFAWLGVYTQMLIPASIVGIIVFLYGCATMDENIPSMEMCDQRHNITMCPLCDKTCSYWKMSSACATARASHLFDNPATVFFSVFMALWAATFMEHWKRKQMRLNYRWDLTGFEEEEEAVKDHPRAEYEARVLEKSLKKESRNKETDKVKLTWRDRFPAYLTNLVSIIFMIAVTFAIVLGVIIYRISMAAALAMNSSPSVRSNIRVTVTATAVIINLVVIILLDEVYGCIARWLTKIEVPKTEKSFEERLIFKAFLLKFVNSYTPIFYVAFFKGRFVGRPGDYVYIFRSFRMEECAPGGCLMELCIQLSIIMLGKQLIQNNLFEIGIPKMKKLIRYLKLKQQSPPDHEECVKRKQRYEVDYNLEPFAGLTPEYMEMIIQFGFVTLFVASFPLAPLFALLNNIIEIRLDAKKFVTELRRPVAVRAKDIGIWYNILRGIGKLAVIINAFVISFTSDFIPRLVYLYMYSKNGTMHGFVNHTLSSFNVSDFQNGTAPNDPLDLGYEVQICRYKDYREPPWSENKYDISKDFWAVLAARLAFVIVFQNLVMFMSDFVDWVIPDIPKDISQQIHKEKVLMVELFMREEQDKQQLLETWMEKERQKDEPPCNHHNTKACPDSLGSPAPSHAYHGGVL
Assay: Automated whole-cell patch clamp (Qpatch) TMEM16A potentiator assay in recombinant FRT cells
Assay type: cell-based
Settings: for activation at 3.33 µM: percentage increase of baseline TMEM16A current, minimum n = 2, read-out: % Potentiation @ 3.33 uM Avg; for EC50: minimum n = 2
Description: Automated Whole-Cell Patch Clamp Assay to Detect TMEM16A Activity in Recombinant Cells
Fisher rat thyroid (FRT) cells stably expressing human TMEM16A (TMEM16Aabc variant; Dr Luis Galietta, Insituto Giannina, Italy) were cultured in T-75 flasks in Hams F-12 media with Coon's modification (Sigma) supplemented with 10% (v/v) foetal bovine serum, penicillin-streptomycin (10,000 U/mL/10000 μg/mL), G-418 (750 μg/mL), L-glutamine (2 mM) and sodium bicarbonate solution (7.5% v/v). At ˜90% confluence cells were harvested for experiments by detachment with a 2:1 (v/v) mixture of Detachin (BMS Biotechnology) and 0.25% (w/v) trypsin-EDTA.
FRT-TMEM16A cells were whole-cell patch clamped using an automated planar patch clamp system (Qpatch, Sophion). Briefly, once high resistance (GOhm) seals were established between the cells and the planar recording array the patch was ruptured using suction pulses to establish the whole-cell recording configuration of the patch clamp technique. The assay employed the following solutions (all reagents Sigma): Intracellular solution (mM): N-methyl-D-glucamine 130, CaCl2 18.2, MgCl2 1, HEPES 10, EGTA 10, BAPTA 20, Mg-ATP 2, pH 7.25, 325 mOsm with sucrose.
Extracellular solution (mM): N-methyl-D-glucamine 130, CaCl2 2, MgCl2 1, HEPES 10, pH 7.3, 320 mOsm with sucrose.
The intracellular solution buffers intracellular calcium at levels required to give ˜20% activation of the maximal TMEM16A mediated current (E020 for calcium ions). Cells were voltage clamped at a holding potential of −70mV and a combined voltage step (to +70 mV)/ramp (−90 my to +90 mV) was applied at 0.05 Hz. After a period of current stabilisation test compounds, solubilised in 100% (v/v) DMSO and subsequently diluted into extracellular solution, were applied to generate a cumulative concentration response curve. Each concentration of test compound was incubated for 5 minutes before addition of the next concentration. After the final concentration was tested a supramaximal concentration of either a known active positive modulator or the TMEM16A inhibitor, CaCCinhA01 (Del La Fuente et al, 2008) was added to define the upper and lower limits of the assay.
Compound activity was quantified by measuring the increase in current upon compound addition and expressing this as a percentage increase of baseline TMEM16A current level.
Peak TMEM16A current at +70 mV was plotted as a function of time over the assay period. Baseline current (IBL) was measured after a period of stabilisation. The increase in current for each compound addition was determined by taking the peak current during the incubation period and subtracting the current from the previous recording period and then expressing this as a percentage of the baseline current (% potentiation). For test compound concentration 1 in FIG. 1 this is:
For each additional concentration tested the increase in current was determined by subtracting the current from the previous incubation period and normalising the baseline value—for test concentration 2 in FIG. 1 this is:
The values for each test concentration were plotted as a cumulative function of concentration eg. for test concentration two this would be the sum of the peak changes measured during concentration one plus concentration two.

activation at 3.33 µM [%]	EC50 [nM]	Structure (SMILES)
406	52	CC(C)(CO)c1cc(F)c(CC(=O)Nc2ccnc(C(=O)NC3(C(F)(F)F)COC3)c2)cc1O [Example 12.1, 4-[[2-[2-Fluoro-5-hydroxy-4-(2-hydroxy-1,1-dimethyl-ethyl)phenyl]acetyl]amino]-N-[3-(trifluoromethyl)oxetan-3-yl]pyridine-2-carboxamide]
97.2	238	CC(C)(CO)NC(=O)c1cc(NC(=O)Cc2cc(O)c(C(C)(C)CO)cc2F)ccn1 [Example 12.3, 4-[[2-[2-Fluoro-5-hydroxy-4-(2-hydroxy-1,1-dimethyl-ethyl)phenyl]acetyl]amino]-N-(2-hydroxy-1,1-dimethyl-ethyl)pyridine-2-carboxamide]
342	214	CC(C)(CO)c1cc(F)c(CC(=O)Nc2ccnc(C(=O)NC3(CO)CCC3)c2)cc1O [Example 12.4, 4-[[2-[2-Fluoro-5-hydroxy-4-(2-hydroxy-1,1-dimethyl-ethyl)phenyl]acetyl]amino]-N-[1-(hydroxymethyl)cyclobutyl]pyridine-2-carboxamide]
190	41	C#CC(C)(C)NC(=O)c1cc(NC(=O)Cc2cc(O)c(C(C)(C)CO)cc2Cl)ccn1 [Example 15.1, 4-[[2-[2-Chloro-5-hydroxy-4-(2-hydroxy-1,1-dimethyl-ethyl)phenyl]acetyl]amino]-N-(1,1-dimethylprop-2-ynyl)pyridine-2-carboxamide]
226	60	CC(C)(CO)c1cc(F)c(CC(=O)Nc2ccnc(C(=O)NC3(C(F)F)CC3)c2)cc1O [Example 15.4, N-[1-(Difluoromethyl)cyclopropyl]-4-[[2-[2-fluoro-5-hydroxy-4-(2-hydroxy-1,1-dimethyl-ethyl)phenyl]acetyl]amino]pyridine-2-carboxamide]
214	181	CC1(NC(=O)c2cc(NC(=O)Cc3cc(O)c(C(C)(C)CO)cc3F)ccn2)CCOCC1 [Example 16.1, 4-[[2-[2-Fluoro-5-hydroxy-4-(2-hydroxy-1,1-dimethyl-ethyl)phenyl]acetyl]amino]-N-(4-methyltetrahydropyran-4-yl)pyridine-2-carboxamide]

More lines, now with the values behind:

Structure (SMILES)	activation at 3.33 µM [%]	EC50 [nM]
CC(C#N)(CO)NC(=O)c1cc(NC(=O)Cc2cc(O)c(C(C)(C)C)cc2F)ccn1 (stereo not drawn) [Example 1.6]	121	40
CC(C)(C#N)NC(=O)c1cc(NC(=O)Cc2cc(O)c(C(C)(C)O)cc2F)ccn1 [Example 2.1, N-(1-Cyano-1-methyl-ethyl)-4-[[2-[2-fluoro-5-hydroxy-4-(1-hydroxy-1-methyl-ethyl)phenyl]acetyl]amino]pyridine-2-carboxamide]	350	466
CC(O)(c1cc(F)c(CC(=O)Nc2ccnc(C(=O)NC3(C(F)(F)F)CC3)c2)cc1O)C1CC1 (stereo not drawn) [Example 2.8, 4-[[2-[4-(1-Cyclopropyl-1-hydroxy-ethyl)-2-fluoro-5-hydroxy-phenyl]acetyl]amino]-N-[1-(trifluoromethyl)cyclopropyl]pyridine-2-carboxamide]	302	77
N#CC1(c2cc(F)c(CC(=O)Nc3ccnc(C(=O)NC4(C(F)(F)F)CC4)c3)cc2O)CCOCC1 [Example 2.9, 4-[[2-[4-(4-Cyanotetrahydropyran-4-yl)-2-fluoro-5-hydroxy-phenyl]acetyl]amino]-N-[1-(trifluoromethyl)cyclopropyl]pyridine-2-carboxamide]	295	149
Cc1cc(C(C)(C)O)c(O)cc1CC(=O)Nc1ccnc(C(=O)NC2(C(F)(F)F)CC2)c1 [Example 2.12, 4-[[2-[5-Hydroxy-4-(1-hydroxy-1-methyl-ethyl)-2-methyl-phenyl]acetyl]amino]-N-[1-(trifluoromethyl)cyclopropyl]pyridine-2-carboxamide]	209	42
O=C(Cc1cc(O)c(C2(CO)CCOCC2)cc1F)Nc1ccnc(C(=O)NC2(C(F)(F)F)CC2)c1 [Example 2.15, 4-[[2-[2-Fluoro-5-hydroxy-4-[4-(hydroxymethyl)tetrahydropyran-4-yl]phenyl]acetyl]amino]-N-[1-(trifluoromethyl)cyclopropyl]pyridine-2-carboxamide]	413	279
O=C(Cc1cc(O)c(C2(CO)CC2)cc1F)Nc1ccnc(C(=O)NC2(C(F)(F)F)CC2)c1 [Example 2.16, 4-[[2-[2-Fluoro-5-hydroxy-4-[1-(hydroxymethyl)cyclopropyl]phenyl]acetyl]amino]-N-[1-(trifluoromethyl)cyclopropyl]pyridine-2-carboxamide]	227	76
CC(C)(C)NC(=O)c1cc(NC(=O)Cc2cc(O)c(C(C)(C)O)cc2F)ccn1 [Example 7, N-tert-Butyl-4-[[2-[2-fluoro-5-hydroxy-4-(1-hydroxy-1-methyl-ethyl)phenyl]acetyl]amino]pyridine-2-carboxamide]	83.6	68
CC(C)(CO)c1cc(F)c(CC(=O)Nc2ccnc(C(=O)NC3(C#N)CCOCC3)c2)cc1O [Example 12, N-(4-Cyanotetrahydropyran-4-yl)-4-[[2-[2-fluoro-5-hydroxy-4-(2-hydroxy-1,1-dimethyl-ethyl)phenyl]acetyl]amino]pyridine-2-carboxamide]	150	118
O=C(Cc1cc(O)c(C2(O)CCOCC2)cc1F)Nc1ccnc(C(=O)NC2(C(F)(F)F)CC2)c1 [Example 13, 4-[[2-[2-Fluoro-5-hydroxy-4-(4-hydroxytetrahydropyran-4-yl)phenyl]acetyl]amino]-N-[1-(trifluoromethyl)cyclopropyl]pyridine-2-carboxamide]	196	221
CC1(NC(=O)c2cc(NC(=O)Cc3cc(O)c(C(C)(C)CO)cc3F)ccn2)CC(F)(F)C1 [Example 15, N-(3,3-Difluoro-1-methyl-cyclobutyl)-4-[[2-[2-fluoro-5-hydroxy-4-(2-hydroxy-1,1-dimethyl-ethyl)phenyl]acetyl]amino]pyridine-2-carboxamide]	113	14
C#CC(C)(C)NC(=O)c1cc(NC(=O)Cc2cc(O)c(C(C)(C)CO)cc2F)ccn1 [Example 16, N-(1,1-Dimethylprop-2-ynyl)-4-[[2-[2-fluoro-5-hydroxy-4-(2-hydroxy-1,1-dimethyl-ethyl)phenyl]acetyl]amino]pyridine-2-carboxamide]	74.5	19
